In ChEMBL document CHEMBL3885861, “Open TG-GATES”:

Species on record: Rattus norvegicus
Experiment: Open TG-GATES - Regimen: Single
Format: toxicity, organism-based, Sprague-Dawley
Parameters: regimen Single, gender Male, age 6 weeks
Details: in vivo, po, route gavage; for APTT / Bas / Eos / Fbg / Hb / Ht / Lym / MCHC / MCV / Mono / PT / Plat / RBC / Ret / WBC: tissue Blood; for KIDNEY_L / KIDNEY_R / KIDNEY_TOTAL: tissue Kidney; for LIVER: tissue Liver; for ALP / ALT / AST / BUN / CRE / Ca / Cl / DBIL / IP / LDH / Na / PL / RALB / TBIL / TC / TG / TP / gamma-GTP: tissue Plasma
[1] = 0 mg/kg, 3 h, dose level Control
[2] = 0 mg/kg, 6 h, dose level Control
[3] = 0 mg/kg, 9 h, dose level Control
[4] = 0 mg/kg, 24 h, dose level Control

What does the source list for `CC(C)N(CCC(C(N)=O)(c1ccccc1)c1ccccn1)C(C)C` (centres undefined) [DISOPYRAMIDE]?
TERMINAL_BW [1]: 207.1 g; APTT [1]: 21.7 s; Bas [1]: 0%; Eos [1]: 1%; Fbg [1]: 318.8 mg/dL; Hb [1]: 13.2 g/dL; Ht [1]: 41.1%; Lym [1]: 77.6%; MCHC [1]: 32.1%; MCV [1]: 64.4 fL; Mono [1]: 2.6%; PT [1]: 15.8 s; Plat [1]: 117.3 x10_4/uL; RBC [1]: 638.6 x10_4/ul; Ret [1]: 8%; WBC [1]: 84.7 x10_2/uL; KIDNEY_L [1]: 0.9 g; KIDNEY_R [1]: 0.9 g; KIDNEY_TOTAL [1]: 1.9 g; LIVER [1]: 9.6 g; ALP [1]: 1747.4 IU/L; ALT [1]: 51 IU/L; AST [1]: 79.8 IU/L; BUN [1]: 12.4 mg/dL; CRE [1]: 0.2 mg/dL; Ca [1]: 10.5 mg/dL; Cl [1]: 108.2 meq/L; DBIL [1]: 0 mg/dL; IP [1]: 8.5 mg/dL; LDH [1]: 193.8 IU/L; Na [1]: 141.8 meq/L; PL [1]: 122.6 mg/dL; RALB [1]: 2.9 g/dL; TBIL [1]: 0.006 mg/dL; TC [1]: 69 mg/dL; TG [1]: 45.4 mg/dL; TP [1]: 5.4 g/dL; gamma-GTP [1]: 1.4 IU/L; TERMINAL_BW [2]: 210.2 g; APTT [2]: 22.4 s; Bas [2]: 0%; Eos [2]: 0.4%; Fbg [2]: 310.2 mg/dL; Ht [2]: 39.9%; Lym [2]: 80.8%; MCHC [2]: 32%; MCV [2]: 64.8 fL; Mono [2]: 2.6%; PT [2]: 15.7 s; Plat [2]: 122.8 x10_4/uL; RBC [2]: 615.4 x10_4/ul; Ret [2]: 7.8%; WBC [2]: 110.6 x10_2/uL; KIDNEY_L [2]: 1 g; KIDNEY_R [2]: 1 g; KIDNEY_TOTAL [2]: 1.9 g; LIVER [2]: 9.3 g; ALT [2]: 42.4 IU/L; AST [2]: 73.2 IU/L; BUN [2]: 13 mg/dL; CRE [2]: 0.1 mg/dL; Ca [2]: 10.8 mg/dL; Cl [2]: 105.6 meq/L; DBIL [2]: 0 mg/dL; IP [2]: 9.3 mg/dL; LDH [2]: 164.8 IU/L; Na [2]: 140.6 meq/L; PL [2]: 135 mg/dL; RALB [2]: 2.9 g/dL; TBIL [2]: 0.004 mg/dL; TC [2]: 72.6 mg/dL; TG [2]: 91 mg/dL; TP [2]: 5.5 g/dL; gamma-GTP [2]: 1.2 IU/L; TERMINAL_BW [3]: 204.9 g; APTT [3]: 22.5 s; Bas [3]: 0%; Eos [3]: 0.4%; Fbg [3]: 300.8 mg/dL; Hb [3]: 12.9 g/dL; Ht [3]: 40%; Lym [3]: 80.6%; MCHC [3]: 32.3%; MCV [3]: 62.7 fL; Mono [3]: 2.6%; PT [3]: 15.9 s; Plat [3]: 113.2 x10_4/uL; RBC [3]: 638.2 x10_4/ul; Ret [3]: 7.5%; WBC [3]: 90.9 x10_2/uL; KIDNEY_L [3]: 1 g; KIDNEY_R [3]: 1 g; KIDNEY_TOTAL [3]: 2 g; LIVER [3]: 8.8 g; ALP [3]: 1336.4 IU/L; ALT [3]: 41.6 IU/L; AST [3]: 72.8 IU/L; BUN [3]: 13.4 mg/dL; CRE [3]: 0.1 mg/dL; Ca [3]: 10.5 mg/dL; Cl [3]: 106.6 meq/L; DBIL [3]: 0.002 mg/dL; IP [3]: 9.2 mg/dL; LDH [3]: 146.8 IU/L; Na [3]: 141.6 meq/L; PL [3]: 116.8 mg/dL; RALB [3]: 2.9 g/dL; TBIL [3]: 0.002 mg/dL; TC [3]: 62.4 mg/dL; TG [3]: 61.4 mg/dL; TP [3]: 5.4 g/dL; gamma-GTP [3]: 1.2 IU/L; TERMINAL_BW [4]: 222.5 g; APTT [4]: 21.9 s; Bas [4]: 0%; Eos [4]: 1%; Fbg [4]: 317 mg/dL; Hb [4]: 13.2 g/dL; Ht [4]: 40.9%; Lym [4]: 82.6%; MCHC [4]: 32.3%; MCV [4]: 65 fL; Mono [4]: 2.4%; PT [4]: 16 s; Plat [4]: 117 x10_4/uL; RBC [4]: 629.4 x10_4/ul; Ret [4]: 7.9%; WBC [4]: 80.5 x10_2/uL; KIDNEY_L [4]: 1 g; KIDNEY_R [4]: 1 g; KIDNEY_TOTAL [4]: 2 g; LIVER [4]: 10.6 g; ALP [4]: 1631 IU/L; ALT [4]: 53.6 IU/L; AST [4]: 78.6 IU/L; BUN [4]: 17 mg/dL; CRE [4]: 0.2 mg/dL; Ca [4]: 10.7 mg/dL; Cl [4]: 105 meq/L; DBIL [4]: 0 mg/dL; IP [4]: 7.8 mg/dL; LDH [4]: 192.4 IU/L; PL [4]: 143.2 mg/dL; RALB [4]: 3 g/dL; TBIL [4]: 0 mg/dL; TC [4]: 71.8 mg/dL; TG [4]: 104 mg/dL; TP [4]: 5.5 g/dL; gamma-GTP [4]: 2 IU/L; TERMINAL_BW (40 mg/kg, 3 h, dose level Low): 208.4 g; APTT (40 mg/kg, 3 h, dose level Low): 23 s; Bas (40 mg/kg, 3 h, dose level Low): 0%; Eos (40 mg/kg, 3 h, dose level Low): 1%; Fbg (40 mg/kg, 3 h, dose level Low): 313.4 mg/dL
